Assay results: patent publication US8299111B2, “Compounds which modulate the CB2 receptor” (Boehringer Ingelheim International GmbH, priority 2006, dated 2012)

Target: T1, human CB2R (Homo sapiens, UniProt P34972)
T1 construct: host or cells: CHO cells
Assay: CB2R mediated modulation of cAMP synthesis
Assay type: cell-based
Conditions: found through the use of the above described assays (binding and cAMP); CHO cells expressing human CB2R, forskolin-stimulated cAMP
Method in brief: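 EC50 values reflect inhibition of cAMP made in response to 10 uM forskolin (with 1 mM IBMX, 0.25% BSA) over 30 min at 37 °C in human CB2R-expressing CHO cells. The window runs from forskolin alone to 1 uM CP55940; curves fitted with a four-parameter logistic model.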

T1 sequence (P34972 whole entry): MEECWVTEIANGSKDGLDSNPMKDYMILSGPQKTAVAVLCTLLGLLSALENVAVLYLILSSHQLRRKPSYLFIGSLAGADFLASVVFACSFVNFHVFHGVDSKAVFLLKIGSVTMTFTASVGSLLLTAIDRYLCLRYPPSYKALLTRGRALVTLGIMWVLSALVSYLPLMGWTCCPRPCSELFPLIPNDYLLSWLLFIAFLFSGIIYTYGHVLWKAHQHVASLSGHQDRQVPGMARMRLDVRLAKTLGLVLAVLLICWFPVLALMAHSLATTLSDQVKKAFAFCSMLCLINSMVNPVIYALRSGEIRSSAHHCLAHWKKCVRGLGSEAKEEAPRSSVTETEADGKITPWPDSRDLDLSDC

| agonistic activity | SMILES |
| --- | --- |
| agonistic activity | Cc1sc(NC(=O)C(C)(C)S(=O)(=O)c2ccc(S(C)(=O)=O)cc2)nc1-c1ccccc1 [2-methyl-N-(5-methyl-4-phenyl-1,3-thiazol-2-yl)-2-{[4-(methylsulfonyl)phenyl]sulfonyl}propanamide] |
| agonistic activity | Cc1sc(NC(=O)C(C)(C)S(=O)(=O)c2ccc(C(F)(F)F)nc2)nc1-c1ccccc1 [2-methyl-N-(5-methyl-4-phenyl-1,3-thiazol-2-yl)-2-{[6-(trifluoromethyl)pyridin-3-yl]sulfonyl}propanamide] |
| agonistic activity | CC(C)(C(=O)Nc1ccc(C(F)(F)F)cc1)S(=O)(=O)c1ccc(C(F)(F)F)nc1 [2-methyl-N-[4-(trifluoromethyl)phenyl]-2-{[6-(trifluoromethyl)pyridin-3-yl]sulfonyl}propanamide] |
| agonistic activity | CC(C)(C(=O)Nc1ccc2ccccc2n1)S(=O)(=O)c1ccc(C(F)(F)F)nc1 [2-methyl-N-quinolin-2-yl-2-{[6-(trifluoromethyl)pyridin-3-yl]sulfonyl}propanamide] |
| agonistic activity | CC(C)(C(=O)Nc1cnc2ccccc2c1)S(=O)(=O)c1ccc(C(F)(F)F)nc1 [2-methyl-N-quinolin-3-yl-2-{[6-(trifluoromethyl)pyridin-3-yl]sulfonyl}propanamide] |
| agonistic activity | CC(C)C(C(=O)Nc1cccc(C(F)(F)F)n1)S(=O)(=O)c1ccc(C(F)(F)F)cc1 (centres unmarked) [3-Methyl-2-(4-trifluoromethyl-benzenesulfonyl)-N-(6-trifluoromethyl-pyridin-2-yl)-butyramide] |
| agonistic activity | O=C(Nc1ccc(C(F)(F)F)cn1)C1(S(=O)(=O)c2ccc(C(F)(F)F)cc2)CCOCC1 [4-(4-Trifluoromethyl-benzenesulfonyl)-tetrahydro-pyran-4-carboxylic acid (5-trifluoromethyl-pyridin-2-yl)-amide] |
| agonistic activity | O=C(Nc1cccc(C(F)(F)F)n1)C1(S(=O)(=O)c2ccc(C(F)(F)F)cc2)CCOCC1 [4-(4-Trifluoromethyl-benzenesulfonyl)-tetrahydro-pyran-4-carboxylic acid (6-trifluoromethyl-pyridin-2-yl)-amide] |
| agonistic activity | CC(C)(C(=O)Nc1nc2ccccc2s1)S(=O)(=O)c1ccc(C(F)(F)F)nc1 [N-1,3-benzothiazol-2-yl-2-methyl-2-{[6-(trifluoromethyl)pyridin-3-yl]sulfonyl}propanamide] |
| agonistic activity | CC(C)(C(=O)Nc1nc2ccccc2o1)S(=O)(=O)c1ccc(Cl)cc1F [N-1,3-benzoxazol-2-yl-2-[(4-chloro-2-fluorophenyl)sulfonyl]-2-methylpropanamide] |
| agonistic activity | Cc1c(-c2ccccc2)nn(C)c1NC(=O)C(C)(C)S(=O)(=O)c1ccc(C(F)(F)F)nc1 [N-(1,4-dimethyl-3-phenyl-1H-pyrazol-5-yl)-2-methyl-2-{[6-(trifluoromethyl)pyridin-3-yl]sulfonyl}propanamide] |
| agonistic activity | CC(C)(C)c1ccccc1NC(=O)C(C)(C)S(=O)(=O)c1ccc(Cl)cc1 [N-(2-tert-Butyl-phenyl)-2-(4-chloro-benzenesulfonyl)-2-methyl-propionamide] |

The remaining lines, values behind:

| SMILES | agonistic activity |
| --- | --- |
| Cc1ccc(NC(=O)C(C)(C)S(=O)(=O)c2ccc(C(F)(F)F)nc2)nc1 [2-methyl-N-(5-methylpyridin-2-yl)-2-{[6-(trifluoromethyl)pyridin-3-yl]sulfonyl}propanamide] | agonistic activity |
| CC(C)(C(=O)Nc1nsc(-c2ccccc2)n1)S(=O)(=O)c1ccc(C(F)(F)F)nc1 [2-methyl-N-(5-phenyl-1,2,4-thiadiazol-3-yl)-2-{[6-(trifluoromethyl)pyridin-3-yl]sulfonyl}propanamide] | agonistic activity |
| CC(C)(C(=O)Nc1cccc(C(F)(F)F)c1)S(=O)(=O)c1ccc(C(F)(F)F)nc1 [2-methyl-N-[3-(trifluoromethyl)phenyl]-2-{[6-(trifluoromethyl)pyridin-3-yl]sulfonyl}propanamide] | agonistic activity |
| CC(C)(C(=O)Nc1cccc(C(F)(F)F)n1)S(=O)(=O)c1ccc(C(F)(F)F)nc1 [2-methyl-N-[6-(trifluoromethyl)pyridin-2-yl]-2-{[6-(trifluoromethyl)pyridin-3-yl]sulfonyl}propanamide] | agonistic activity |
| CC(C)C(C(=O)Nc1ccc(C(F)(F)F)cn1)S(=O)(=O)c1ccc(C(F)(F)F)cc1 (centres unmarked) [3-Methyl-2-(4-trifluoromethyl-benzenesulfonyl)-N-(5-trifluoromethyl-pyridin-2-yl)-butyramide] | agonistic activity |
| CC(C)(C)c1csc(NC(=O)C2(S(=O)(=O)c3ccc(C(F)(F)F)cc3)CCOCC2)n1 [4-(4-Trifluoromethyl-benzenesulfonyl)-tetrahydro-pyran-4-carboxylic acid (4-tert-butyl-thiazol-2-yl)-amide] | agonistic activity |
| Cn1nc(C(C)(C)C)cc1NC(=O)C1(S(=O)(=O)c2ccc(C(F)(F)F)cc2)CCOCC1 [4-(4-Trifluoromethyl-benzenesulfonyl)-tetrahydro-pyran-4-carboxylic acid (5-tert-butyl-2-methyl-2H-pyrazol-3-yl)-amide] | agonistic activity |
| Cc1nc(NC(=O)C2(S(=O)(=O)c3ccc(C(F)(F)F)cc3)CCOCC2)sc1C(C)(C)C [4-(4-Trifluoromethyl-benzenesulfonyl)-tetrahydro-pyran-4-carboxylic acid (5-tert-butyl-4-methyl-thiazol-2-yl)-amide] | agonistic activity |
| CC(C)(C)c1cc(NC(=O)C2(S(=O)(=O)c3ccc(C(F)(F)F)cc3)CCOCC2)no1 [4-(4-Trifluoromethyl-benzenesulfonyl)-tetrahydro-pyran-4-carboxylic acid (5-tert-butyl-isoxazol-3-yl)-amide] | agonistic activity |
| CC(C)(C(=O)Nc1nc2ccccc2s1)S(=O)(=O)c1ccc(Cl)cc1F [N-1,3-benzothiazol-2-yl-2-[(4-chloro-2-fluorophenyl)sulfonyl]-2-methylpropanamide] | agonistic activity |
| CC(C)(C(=O)Nc1nc2ccccc2o1)S(=O)(=O)c1ccc(S(C)(=O)=O)cc1 [N-1,3-benzoxazol-2-yl-2-methyl-2-{[4-(methylsulfonyl)phenyl]sulfonyl}propanamide] | agonistic activity |
| CC(C)(C(=O)Nc1nc2ccccc2o1)S(=O)(=O)c1ccc(C(F)(F)F)nc1 [N-1,3-benzoxazol-2-yl-2-methyl-2-{[6-(trifluoromethyl)pyridin-3-yl]sulfonyl}propanamide] | agonistic activity |
| COc1ccc(S(=O)(=O)C(C)(C)C(=O)Nc2c(C)c(-c3ccccc3)nn2C)cc1 [N-(1,4-dimethyl-3-phenyl-1H-pyrazol-5-yl)-2-[(4-methoxyphenyl)sulfonyl]-2-methylpropanamide] | agonistic activity |
| CC(C)(C(=O)Nc1ccccc1Cl)S(=O)(=O)c1ccc(C(F)(F)F)cc1 [N-(2-Chloro-phenyl)-2-methyl-2-(4-trifluoromethyl-benzenesulfonyl)-propionamide] | agonistic activity |
